According to paper PMC10375898 (2023):

How the values were obtained:
[1] = tested on: 5'-(GACAGCUGCUGUC)2-3' duplex (single 5'CUG/3'GUC) (RNA, mismatch bulge abasic) GACAGCUGCUGUC; assay: To-Pro-1 dye displacement (fluorescence); settings: Na+ 200 mM NaCl, 8 mM NaH2PO4; To-Pro-1 (100 nM) displaced; Kd from competitive fit (Ki)
[2] = tested on: r(CUG)10 (RNA, repeat) CUGCUGCUGCUGCUGCUGCUGCUGCUGCUG; assay: in vitro Chem-CLIP (photo-cross-linking pull-down); settings: covalent; 26 ± 7% pulled down at 100 μM
[3] = tested on: r(CUG)8 with GAAA hairpin loop (RNA, repeat) CCGCUGCUGCUGCUGCGAAAGCUGCUGCUGCUGCGG; assay: in vitro Chem-CLIP (photo-cross-linking pull-down); settings: covalent; 100 μM
[4] = tested on: r(CUG)10 (RNA, repeat) CUGCUGCUGCUGCUGCUGCUGCUGCUGCUG; assay: competitive Chem-CLIP; settings: competes with 50 μM of 1; 0 to 500 μM
[5] = tested on: 5'-(GACAGCUGCUGUC)2-3' duplex (single 5'CUG/3'GUC) (RNA, mismatch bulge abasic) GACAGCUGCUGUC; assay: NMR (WaterLOGSY, 1D 1H imino and aromatic); settings: 10 mM Na2HPO4/NaH2PO4, pH 6.0, 0.05 mM EDTA
[6] = tested on: 5'-(GACAGCUGCUGUC)2-3' duplex (single 5'CUG/3'GUC) (RNA, mismatch bulge abasic) GACAGCUGCUGUC; assay: fluorescence titration; settings: Na+ 200 mM NaCl; 8 mM NaH2PO4, pH 7.0, 1 mM EDTA, 40 µg/mL BSA, room temperature; 100 nM dye

Row | Kd [1] | binding [2] | binding [3] | binding [4] | binding [5] | Kd [6] | SMILES
1 | 1200 ± 200 nM | yes | yes | – | – | – | C#CCCC1(CCC(=O)NC2=Nc3cccc4cccc(c34)N2)N=N1
2 | 1400 ± 300 nM | – | – | yes | yes | – | CCC(=O)NC1=Nc2cccc3cccc(c23)N1
3 | – | – | – | – | – | 31 ± 2 nM | C[n+]1c(C=C2C=CN(CCC[N+](C)(C)C)c3ccccc32)sc2ccccc21
